# Laboratory results from article PMC12736255, “Reinvestigating Pyrrol-2-One-Based Compounds: From Antimicrobial Agents to Promising Antitumor Candidates” (Pharmaceuticals, 2025).
# Experiments:
# [1] = tested on: Gram-positive and Gram-negative bacteria; design: method as in PMID 38398524; conditions: cited from earlier work
# SR = experiment: NCI-60 single-dose screen; type: cell-based; conditions: Homo sapiens, 10^–5 M, read-out: GI (%)
# Outline: (§1)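 Read-out is from the NCI-60 program: human tumor lines exposed to a single 10^−5 M dose of each compound.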
# NCI/ADR-RES = experiment: NCI-60 single-dose screen; type: cell-based; conditions: Homo sapiens, 10^–5 M, read-out: GI (%)
# Outline: as §1
# KM12 = experiment: NCI-60 single-dose screen; type: cell-based; conditions: Homo sapiens; KM12, 10^–5 M; read-out: GI (%)
# Outline: as §1
# OVCAR-8 = experiment: NCI-60 single-dose screen; type: cell-based; conditions: Homo sapiens; OVCAR-8, 10^–5 M; read-out: GI (%)
# Outline: as §1
# OVCAR-3 [2] = experiment: NCI-60 single-dose screen; type: cell-based; conditions: Homo sapiens; OVCAR-3, 10^–5 M; read-out: GI (%)
# Outline: as §1
# TK-10 = experiment: NCI-60 single-dose screen; type: cell-based; conditions: Homo sapiens; TK-10, 10^–5 M; read-out: GI (%)
# Outline: as §1
# HOP-92 = experiment: NCI-60 single-dose screen; type: cell-based; conditions: Homo sapiens; HOP-92, 10^–5 M; read-out: GI (%)
# Outline: as §1
# NCI-H460 = experiment: NCI-60 single-dose screen; type: cell-based; conditions: Homo sapiens; NCI-H460, 10^–5 M; read-out: GI (%)
# Outline: as §1
# PC-3 = experiment: NCI-60 single-dose screen; type: cell-based; conditions: Homo sapiens, PC-3, PC-3, 10^–5 M; read-out: GI (%)
# Outline: as §1
# SF-268 = experiment: NCI-60 single-dose screen; type: cell-based; conditions: Homo sapiens; SF-268, 10^–5 M; read-out: GI (%)
# Outline: as §1
# COLO205 = experiment: NCI-60 single-dose screen; type: cell-based; conditions: Homo sapiens, COLO 205; COLO205, 10^–5 M; read-out: GI (%)
# Outline: as §1
# HT-29 = experiment: NCI-60 single-dose screen; type: cell-based; conditions: Homo sapiens; HT-29, 10^–5 M; read-out: GI (%)
# Outline: as §1
# MALME-3M = experiment: NCI-60 single-dose screen; type: cell-based; conditions: Homo sapiens, 10^–5 M, read-out: GI (%)
# Outline: as §1
# ACHN = experiment: NCI-60 single-dose screen; type: cell-based; conditions: Homo sapiens, 10^–5 M, read-out: GI (%)
# Outline: as §1
# SK-MEL-5 = experiment: NCI-60 single-dose screen; type: cell-based; conditions: Homo sapiens; SK-MEL-5, 10^–5 M; read-out: GI (%)
# Outline: as §1
# MDA-MB-468 = experiment: NCI-60 single-dose screen; type: cell-based, human; conditions: MDA-MB-468, 10^–5 M
# Outline: as §1
# SF-295 = experiment: NCI-60 single-dose screen; type: cell-based, human; conditions: SF-295, 10^–5 M
# Outline: as §1
# U251 [3] = experiment: NCI-60 single-dose screen; type: cell-based, human; conditions: U251, 10^–5 M
# Outline: as §1
# UO-31 = experiment: NCI-60 single-dose screen; type: cell-based, human; conditions: UO-31, 10^–5 M
# Outline: as §1
# BT-549 [4] = experiment: NCI-60 single-dose screen; type: cell-based, human; conditions: BT-549, 10^–5 M
# Outline: as §1
# HOP-62 = experiment: NCI-60 single-dose screen; type: cell-based, human; conditions: HOP-62, 10^–5 M
# Outline: as §1
# HCT-116 = experiment: NCI-60 5-dose screen; type: cell-based, human
# HS 578T = experiment: NCI-60 5-dose screen; type: cell-based, human
# LOX IMVI = experiment: NCI-60 5-dose screen; type: cell-based, human
# MDA-MB-231/ATCC = experiment: NCI-60 5-dose screen; type: cell-based, human
# BT-549 [5] = experiment: NCI-60 5-dose screen; type: cell-based, human
# SK-MEL-2 = experiment: NCI-60 5-dose screen; type: cell-based, human
# T-47D = experiment: NCI-60 5-dose screen; type: cell-based, human
# U251 [6] = experiment: NCI-60 5-dose screen; type: cell-based, human
# COLO 205 = experiment: NCI-60 5-dose screen; type: cell-based, human
# OVCAR-4 = experiment: NCI-60 5-dose screen; type: cell-based, human
# OVCAR-3 [7] = experiment: NCI-60 5-dose screen; type: cell-based, human
# IGROV1 = experiment: NCI-60 5-dose screen; type: cell-based, human
# RPMI-8226 = experiment: NCI-60 5-dose screen; type: cell-based, human
# A549/ATCC = experiment: NCI-60 5-dose screen; type: cell-based, human
# [8] = Homo sapiens, read-out: LC50 (the source's name)
smiles,measurement,setting,value
O=C1C(Nc2ccc(I)cc2)=CC(c2ccc3c(c2)OCO3)N1c1ccc(I)cc1 (centres unmarked) [3n],antibacterial activity (in words),[1],highest antibacterial activity
same,inhibition at 10 µM,SR,27%
same,inhibition at 10 µM,NCI/ADR-RES,0%
same,inhibition at 10 µM,KM12,19%
same,inhibition at 10 µM,OVCAR-8,0%
same,inhibition at 10 µM,OVCAR-3 [2],10%
same,inhibition at 10 µM,TK-10,0%
same,inhibition at 10 µM,HOP-92,4%
same,inhibition at 10 µM,NCI-H460,3%
same,inhibition at 10 µM,PC-3,1%
same,inhibition at 10 µM,SF-268,25%
same,inhibition at 10 µM,COLO205,5%
same,inhibition at 10 µM,HT-29,5%
same,inhibition at 10 µM,MALME-3M,0%
same,inhibition at 10 µM,ACHN,0%
same,inhibition at 10 µM,SK-MEL-5,1%
same,GI (%),MDA-MB-468,83%
same,GI (%),SF-295,9%
same,GI (%),U251 [3],0%
same,GI (%),UO-31,6%
same,GI (%),BT-549 [4],3%
same,GI (%),HOP-62,0%
O=C1C(Nc2ccc(I)cc2)=CC(c2ccco2)N1c1ccc(I)cc1 (centres unmarked) [3m],antibacterial activity (in words),[1],highest antibacterial activity
same,inhibition at 10 µM,SR,76%
same,inhibition at 10 µM,NCI/ADR-RES,15%
same,inhibition at 10 µM,KM12,48%
same,inhibition at 10 µM,OVCAR-8,11%
same,inhibition at 10 µM,OVCAR-3 [2],8%
same,inhibition at 10 µM,TK-10,7%
same,inhibition at 10 µM,HOP-92,29%
same,inhibition at 10 µM,NCI-H460,0%
same,inhibition at 10 µM,PC-3,28%
same,inhibition at 10 µM,SF-268,79%
same,inhibition at 10 µM,COLO205,8%
same,inhibition at 10 µM,HT-29,6%
same,inhibition at 10 µM,MALME-3M,34%
same,inhibition at 10 µM,ACHN,9%
same,inhibition at 10 µM,SK-MEL-5,17%
same,GI (%),MDA-MB-468,100 ^q1%
same,GI (%),SF-295,63%
same,GI (%),U251 [3],0%
same,GI (%),UO-31,17%
same,GI (%),BT-549 [4],17%
same,GI (%),HOP-62,50%
O=C1C(Nc2ccc(I)cc2)=CC(c2ccc(O)c(O)c2)N1c1ccc(I)cc1 (centres unmarked) [3h],TGI,HCT-116,>100 µM
same,GI50,HCT-116; Homo sapiens,7.43 µM
same,CC50,HCT-116; [8],> 100 µM
same,TGI,HS 578T,>100 µM
same,GI50,HS 578T; Homo sapiens,6.65 µM
same,CC50,HS 578T; [8],> 100 µM
same,TGI,LOX IMVI,>100 µM
same,GI50,LOX IMVI; Homo sapiens,> 100 µM
same,CC50,LOX IMVI; [8],> 100 µM
same,TGI,MDA-MB-231/ATCC,>100 µM
same,GI50,MDA-MB-231/ATCC; Homo sapiens,> 100 µM
same,CC50,MDA-MB-231/ATCC; [8],> 100 µM
same,TGI,BT-549 [5],>100 µM
same,GI50,BT-549 [5]; Homo sapiens,> 100 µM
same,CC50,BT-549 [5]; [8],> 100 µM
same,TGI,SK-MEL-2,>100 µM
same,GI50,SK-MEL-2; Homo sapiens,6.64 µM
same,CC50,SK-MEL-2; [8],> 100 µM
same,TGI,T-47D,>100 µM
same,GI50,"T-47D; Homo sapiens, T47D",2.41 µM
same,CC50,"T-47D; Homo sapiens, T47D, read-out: LC50 (the source's name)",> 100 µM
same,inhibition at 10 µM,SR,100%
same,inhibition at 10 µM,NCI/ADR-RES,35%
same,inhibition at 10 µM,KM12,100%
same,inhibition at 10 µM,OVCAR-8,37%
same,inhibition at 10 µM,OVCAR-3 [2],96%
same,inhibition at 10 µM,TK-10,50%
same,inhibition at 10 µM,HOP-92,66%
same,inhibition at 10 µM,NCI-H460,98%
same,inhibition at 10 µM,PC-3,> 70%
same,inhibition at 10 µM,SF-268,82%
same,inhibition at 10 µM,COLO205,98%
same,inhibition at 10 µM,HT-29,96%
same,inhibition at 10 µM,MALME-3M,100%
same,inhibition at 10 µM,ACHN,61%
same,inhibition at 10 µM,SK-MEL-5,94%
same,TGI,U251 [6],>100 µM
same,GI50,"U251 [6]; Homo sapiens, U-251",> 100 µM
same,LC50 (50% lethal concentration),"U251 [6]; Homo sapiens, U-251",> 100 µM
same,TGI,COLO 205,>100 µM
same,GI50,COLO 205; Homo sapiens,6.65 µM
same,CC50,COLO 205; [8],> 100 µM
same,TGI,OVCAR-4,>100 µM
same,GI50,OVCAR-4; Homo sapiens,3.27 µM
same,CC50,OVCAR-4; [8],> 100 µM
same,TGI,OVCAR-3 [7],>100 µM
same,GI50,OVCAR-3 [7]; Homo sapiens,9.16 µM
same,CC50,OVCAR-3 [7]; [8],> 100 µM
same,TGI,IGROV1,>100 µM
same,GI50,"IGROV1; Homo sapiens, IGROV-1",> 100 µM
same,CC50,"IGROV1; Homo sapiens, IGROV-1, read-out: LC50 (the source's name)",> 100 µM
same,GI (%),MDA-MB-468,100 ^h1%
same,GI (%),SF-295,56%
same,GI (%),U251 [3],58%
same,GI (%),UO-31,54%
same,GI (%),BT-549 [4],81%
same,GI (%),HOP-62,82%
same,TGI,RPMI-8226,6.01 µM
same,GI50,RPMI-8226; Homo sapiens,2.4 µM
same,CC50,RPMI-8226; [8],> 100 µM
same,TGI,A549/ATCC,>100 µM
same,GI50,A549/ATCC; Homo sapiens,> 100 µM
same,CC50,A549/ATCC; [8],> 100 µM
O=C1C(Nc2ccc(I)cc2)=CC(c2ccc(O)cc2)N1c1ccc(I)cc1 (centres unmarked) [3g],antibacterial activity (in words),[1],highest antibacterial activity
same,inhibition at 10 µM,SR,100%
same,inhibition at 10 µM,NCI/ADR-RES,44%
same,inhibition at 10 µM,KM12,80%
same,inhibition at 10 µM,OVCAR-8,31%
same,inhibition at 10 µM,OVCAR-3 [2],59%
same,inhibition at 10 µM,TK-10,43%
same,inhibition at 10 µM,HOP-92,66%
same,inhibition at 10 µM,NCI-H460,69%
same,inhibition at 10 µM,PC-3,73%
same,inhibition at 10 µM,SF-268,35%
same,inhibition at 10 µM,COLO205,42%
same,inhibition at 10 µM,HT-29,96%
same,inhibition at 10 µM,MALME-3M,83%
same,inhibition at 10 µM,SK-MEL-5,27%
same,GI (%),MDA-MB-468,96%
same,GI (%),SF-295,48%
same,GI (%),U251 [3],29%
same,GI (%),UO-31,54%
same,GI (%),BT-549 [4],54%
same,GI (%),HOP-62,5%
COc1ccc(C2C=C(Nc3ccc(I)cc3)C(=O)N2c2ccc(I)cc2)cc1OC (centres unmarked) [3j],inhibition at 10 µM,SR,0%
same,inhibition at 10 µM,NCI/ADR-RES,0%
same,inhibition at 10 µM,KM12,0%
same,inhibition at 10 µM,OVCAR-8,0%
same,inhibition at 10 µM,OVCAR-3 [2],0%
same,inhibition at 10 µM,TK-10,0%
same,inhibition at 10 µM,HOP-92,0%
same,inhibition at 10 µM,NCI-H460,0%
same,inhibition at 10 µM,PC-3,0%
same,inhibition at 10 µM,SF-268,3%
same,inhibition at 10 µM,COLO205,9%
same,inhibition at 10 µM,HT-29,0%
same,inhibition at 10 µM,MALME-3M,0%
same,inhibition at 10 µM,ACHN,0%
same,inhibition at 10 µM,SK-MEL-5,11%
same,GI (%),MDA-MB-468,22%
same,GI (%),SF-295,0%
same,GI (%),U251 [3],0%
same,GI (%),UO-31,0%
same,GI (%),BT-549 [4],0%
same,GI (%),HOP-62,0%
